Reference: patent US20080176826A1, “Pyridine Compounds For Combating Arthropod Pests and Nematodes” (priority 2005, published 2008)

Columns and labels:
[1] = test system: Green peach aphid (Myzus persicae), mixed life stages; test: Green peach aphid foliar dip test, mortality; assay type: in vivo; settings: 120 h, infested bell pepper leaves dipped 3 seconds, determined after 5 days, read-out: mortality of green peach aphid in comparison with untreated controls
Method: (§1) The active compounds were formulated in a mixture of 50 vol.-% acetone: 50 vol.-% water. A nonionic surfactant (Kinetic®) was included in the solution at a volume of 0.01% v/v.
(§2) In the following tests, the formulated solutions of the active compounds were diluted to an active ingredient concentration of 300 ppm and the diluted solutions were applied in the below mentioned tests.
Bell pepper plants at the first true-leaf stage were infested prior to treatment by placing heavily infested leaves from the main aphid colony on top of the treatment plants. The aphids were allowed to transfer overnight to accomplish an infestation of 30-40 aphids per plant and the host leaves were removed. The infested leaves of the test plants were then dipped and agitated in the test solution for 3 seconds and allowed to dry in a fume hood. Test plants were maintained under fluorescent lighting in a 24-hr photoperiod at 25° C. and 20-40% relative humidity. Aphid mortality on the treated plants, relative to mortality on untreated check plants, was determined after 5 days. Test compound A provided 85% mortality while test compounds B and C each provided 100% mortality of green peach aphid (Myzus persicae, mixed life stages) in comparison with untreated controls, when applied at 300 ppm. Test Compounds D, E, F, G and H each provided >85% mortality of green peach aphid (Myzus persicae, mixed life stages) in comparison with untreated controls, when applied at 300 ppm.

[2] = test system: Cotton aphid (Aphis gossypii), mixed life stages; test: Cotton aphid foliar dip test, mortality; assay type: in vivo; settings: 120 h, infested cotton cotyledons dipped 3 seconds, determined after 5 days, read-out: mortality of cotton aphid in comparison with untreated controls
Method: as §1, §2
Cotton plants at the cotyledon stage were infested prior to treatment by placing a heavily infested leaf from the main aphid colony on top of each cotyledon. The aphids were allowed to transfer overnight and the host leaf was removed. The infested cotyledons were then dipped and agitated in the test solution for 3 seconds and allowed to dry in a fume hood. Test plants were maintained under fluorescent lighting in a 24-hr photoperiod at 25° C. and 20-40% relative humidity. Aphid mortality on the treated plants, relative to mortality on untreated check plants, was determined after 5 days. In this test, test compounds B, C and F at 300 ppm provided 100%, and 86-99% mortality, respectively, of cotton aphid (Aphis gossypii, mixed life stages) in comparison with untreated controls. Test compound A at 300 ppm provided 75-85% mortality, respectively, of cotton aphid (Aphis gossypii, mixed life stages) in comparison with untreated controls.

SMILES	mortality at 300 ppm [1]	mortality at 300 ppm [2]
CC(Oc1ccc(Cl)nc1)C1CCCN1OC(=O)c1ccccc1 (racemic) [Compound E, Benzoic acid 2-[1-(6-chloropyridin-3-yloxy)-ethyl]-pyrrolidin-1-yl ester]	> 85%	–
Clc1cncc(OC[C@H]2CCCN2)c1 [Compound A, R-3-Chloro-5-(pyrrolidin-2-ylmethyloxy)-pyridine]	85%	75 to 85%
CC(C)(C)C(=O)ON1CCCC1COc1cncc(Cl)c1 (stereo not drawn) [Compound B, 2,2-Dimethyl-propionic acid 2-(5-chloropyridin-3-yloxymethyl)pyrrolidin-1-yl ester]	100%	100%
CC(Oc1ccc(Cl)nc1)C1CCCN1 (stereo not drawn) [Compound F, 2-Chloro-5-(1-pyrrolidin-2-ylethoxy)-pyridine]	> 85%	86 to 99%
CC(Oc1cncc(Cl)c1)C1CCCN1 (stereo not drawn) [Compound G, 3-Chloro-5-(1-pyrrolidin-2-ylethoxy)-pyridine]	> 85%	–
C[C@@H](Oc1cncc(Cl)c1)C1CCN1 (stereo partly drawn) [Compound H, 2S-3-(1-Azetidin-2-yl-ethoxy)-5-chloro-pyridine]	> 85%	–
